In patent US6727206B2, “Substituted aryl ketones” (Bayer Aktiengesellschaft, priority 1999, dated 2004):
Like-named read-outs stand apart in the source and are kept apart here.

What was measured:
[1] = system: crop plants, such as maize; experiment: Post-emergence test, tolerance by crop plants; format: in vivo; settings: rated after three weeks
Text: (§1) After three weeks, the degree of damage to the plants is rated in % damage in comparison to the development of the untreated control.

[2] = logP determination by HPLC on reversed-phase column (C 18), EEC directive 79/831 Annex V.A8; format: physicochemical; settings: for logP: Table 1; label a): acidic range
Procedure: Temperature: 43° C. (a) Mobile phases for the determination in the acidic range: 0.1% aqueous phosphoric acid, acetonitrile; linear gradient of 10% acetonitrile to 90% acetonitrile—the corresponding data in Table 1 are labelled ^a). (b) Mobile phases for the determination in the neutral range: 0.01 molar aqueous phosphate buffer solution, acetonitrile, linear gradient from 10% acetonitrile to 90% acetonitrile—the corresponding data in Table 1 are labelled ^b).

weeds [3] = experiment: Post-emergence test, activity against weeds; format: in vivo; settings: test plants of 5 to 15 cm sprayed, rated after three weeks
Text: as §1

[4] = system: crop plants, such as cotton, maize, soya and wheat; experiment: Pre-emergence test, tolerance by crop plants; format: in vivo; settings: rated after three weeks
Text: (§2) Seeds of the test plants are sown in normal soil.
as §1

weeds [5] = experiment: Pre-emergence test, activity against weeds; format: in vivo; settings: soil sprayed 24 hours after sowing, rated after three weeks
Text: as §2, §1

[6] = 0.1% aqueous phosphoric acid/acetonitrile gradient, 43° C.

Row | Compound | logP [2, 6] | further results
1 | Cn1c(C(S)c2c(Cl)ccc(C(=O)C3C(=O)CCCC3=O)c2Cl)n[nH]c1=O (stereo not shown) |  | melting point: 187 °C
2 | CCn1ncc(C(=O)c2ccc(Sc3n[nH]c(=O)n3C)cc2Cl)c1O |  | melting point: 216 °C
3 | Cn1c(Sc2cc(C(F)(F)F)ccc2C(=O)C2C(=O)CCCC2=O)n[nH]c1=O [Example 1, 2-[2-[(4-methyl-5-oxo-4,5-dihydro-1H-1,2,4-triazol-3-yl)-sulphanyl]-4-trifluoromethyl-benzoyl]-1,3-cyclohexanedione] |  | tolerance by crop plants [1]: tolerated well; chromatographic logP ([2]; reversed-phase HPLC column (C 18), Example 1, mobile phase range not labelled, read-out: log P): 2; activity against weeds (degree of damage) (weeds [3]): strong activity; tolerance by crop plants [4]: tolerated well; activity against weeds (degree of damage) (weeds [5]): strong activity
4 | Cn1nc(Sc2ccc(C(=O)C3C(=O)CCCC3=O)c(Cl)c2)n(C)c1=O [Example 6] | logP = 2.08^a) | 
5 | Cc1nn(C)c(O)c1C(=O)c1ccc(Sc2nn(C)c(=O)n2C)cc1Cl [Example 9] | logP = 1.34^a) | 
6 | Cn1nc(S(=O)(=O)c2ccc(C(=O)C3C(=O)CCCC3=O)c(Cl)c2)n(C)c1=O [Example 13] | logP = 2.09^a) | 
7 | Cn1c(S(=O)(=O)c2ccc(C(=O)C3C(=O)CCCC3=O)c(Cl)c2)n[nH]c1=O [Example 14] | logP = 1.88^a) | 
8 | Cn1nc(Sc2cc(C(F)(F)F)ccc2C(=O)C2C(=O)CCCC2=O)n(C)c1=O [Example 15] |  | tolerance by crop plants [1]: tolerated well; activity against weeds (degree of damage) (weeds [3]): strong activity; tolerance by crop plants [4]: tolerated well; activity against weeds (degree of damage) (weeds [5]): strong activity
9 | Cn1nc(SCc2c(Cl)ccc(C(=O)C3C(=O)CCCC3=O)c2Cl)n(C)c1=O [Example 20] | logP = 2.24^a) | 
10 | Cn1c([S+]([O-])Cc2c(Cl)ccc(C(=O)C3C(=O)CCCC3=O)c2Cl)n[nH]c1=O (stereo not shown) [Example 22, 2-[2,4-dichloro-3-[(4-methyl-5-oxo-4,5-dihydro-1H-1,2,4-triazol-3-yl)-sulphinylmethyl]-benizoyl]-1,3-cyclohexanedione] |  | chromatographic logP ([2]; reversed-phase HPLC column (C 18); Table 1; label a): acidic range, 0.1% aqueous phosphoric acid/acetonitrile gradient, 43° C.): 1.6
11 | Cn1nc(S(=O)(=O)Cc2c(Cl)ccc(C(=O)C3C(=O)CCCC3=O)c2Cl)n(C)c1=O [Example 23] | logP = 2.09^a) | 
12 | Cn1c(S(=O)(=O)Cc2c(Cl)ccc(C(=O)C3C(=O)CCCC3=O)c2Cl)n[nH]c1=O [Example 25] | logP = 1.87^a) | 
13 | Cn1c([S+]([O-])Cc2c(Cl)ccc(C(=O)C3C(=O)CCCC3=O)c2Cl)n[nH]c1=O (stereo not shown) [Example 28] | logP = 1.61^a) | 
14 | CCn1nc(Sc2ccc(C(=O)C3C(=O)CCCC3=O)c(Cl)c2)n(C)c1=O [Example 47] | logP = 2.34^a) | 
15 | CCCn1nc(Sc2ccc(C(=O)C3C(=O)CCCC3=O)c(Cl)c2)n(C)c1=O [Example 49] | logP = 2.63^a) | 
16 | C=CCn1nc(Sc2ccc(C(=O)C3C(=O)CCCC3=O)c(Cl)c2)n(C)c1=O [Example 51] | logP = 2.47^a) | 
17 | C#CCn1nc(Sc2ccc(C(=O)C3C(=O)CCCC3=O)c(Cl)c2)n(C)c1=O [Example 53] | logP = 2.37^a) | 
18 | Cn1c(Sc2ccc(C(=O)C3C(=O)CCCC3=O)c(Cl)c2)nn(CC2CC2)c1=O [Example 55] | logP = 2.72^a) | 
19 | Cn1c(Sc2ccc(C(=O)C3C(=O)CCCC3=O)c(Cl)c2)nn(Cc2ccccc2)c1=O [Example 57] | logP = 3.04^a) | 
20 | Cn1nc(S(=O)(=O)c2cc(C(F)(F)F)ccc2C(=O)C2C(=O)CCCC2=O)n(C)c1=O [Example 68] | logP = 1.85^a) | 
21 | CCn1ncc(C(=O)c2ccc(C(F)(F)F)cc2S(=O)(=O)c2nn(C)c(=O)n2C)c1O [Example 69] | logP = 1.72^a) | 
22 | Cn1nc([S+]([O-])Cc2cc(C(F)(F)F)ccc2C(=O)C2C(=O)CCCC2=O)n(C)c1=O (stereo not shown) [Example 70] | logP = 1.95^a) | 
23 | CCn1ncc(C(=O)c2ccc(C(F)(F)F)cc2C[S+]([O-])c2nn(C)c(=O)n2C)c1O (stereo not shown) [Example 71] | logP = 1.77^a) | 
24 | Cn1nc(SCc2cc(C(F)(F)F)ccc2C(=O)O)n(C)c1=O [II-9, 2-[(4,5-dihydro-1,4-dimethyl-5-oxo-1H-1,2,4-triazol-3-yl)-sulphanylmethyl]-4-trifluoromethyl-benzoic acid] |  | chromatographic logP ([2]; reversed-phase HPLC column (C 18), Table 2 (starting materials of formula II); label a): acidic range): 1.94
